Measured values taken from paper PMC10787068, “Targeting the Mitochondrial Chaperone TRAP1 Alleviates Vascular Pathologies in Ischemic Retinopathy” (Advanced Science, 2023).

Columns and labels:
[1] = system: mouse cornea; test: Corneal toxicity after topical application (H&E staining); assay type: in vivo; conditions: 2 mM once daily for 6 days
Method: (§1) their cytotoxic activities were analyzed in four independent experiments by trypan blue staining. The calculated IC50 values are presented in the normal cell cytotoxicity column in Table 1. B) Topical toxicity of TRAP1 inhibitors. A 3D culture of human corneal epithelium (MCTT HCE) was incubated with 2 mM TRAP1 inhibitors and analyzed by H&E staining.
The culture thickness (n = 5) was measured and analyzed (Table S1). Scale bar, 25 μm. C) Corneal toxicity. After topical application of 2 mM MitoQ, SB-U014, or SB-U015 once daily for 6 days, the mouse cornea was harvested and analyzed by H&E staining. Treatment with […]
Supplementary Table 1. Percentage viability and thickness of the 3D culture of MCTT […]
Drug Percentage viability (%) Thickness (μm)
A 3D culture of human corneal epithelium (MCTT HCE) was incubated with 2 mM TRAP1 inhibitors, and the percentage viability was analyzed by the WST-1 assay (n = 4). Absorbance was measured with a microplate reader. Thickness was calculated from H&E staining images (n = 5) as in Figure S18B, Supporting information. Data Information: The data are […]

[2] = system: mouse primary Müller cells; test: Normal cell cytotoxicity in primary Müller cells (trypan blue staining); assay type: cell-based; conditions: 24 hr under hypoxia, n = 4, mean ± SEM
Method: (§2) Mouse primary Müller cells were isolated as reported previously.^[ [43] ^] In brief, retinas were isolated from P5–P7 mice and dissociated using a Papain Dissociation Kit (Worthington Industries; Columbus, OH, USA). Collected retinal cells were incubated on a plate coated with 0.1% gelatin (Sigma), and the culture media (DMEM supplemented with 10% FBS and 1% penicillin‐streptomycin) was changed once every 2 days. Cells were subcultured into a new plate and incubated for another 7 days. Adherent cells were largely primary Müller cells, as confirmed by immunocytochemical analysis using an anti‐glutamine synthetase antibody (Millipore). […]
(§3) bar, 500 μm. B) Quantification of avascular and neovascular tuft areas in OIR mice intravitreally injected with MitoQ (n = 5 mice/group). […] Harvested retinal samples were whole-mounted and analyzed as in (A). […]
(§4) Scale bar, 500 μm. D) Quantification of avascular and neovascular tuft areas in OIR mice topically treated with MitoQ (n = 6 mice/group). […]
as §1, with “B) Topical toxicity of TRAP1 inhibitors.” left out
(§5) The culture thickness (n = 5) was measured and analyzed (Table S1). […]

[3] = as above; assay type: cell-based; conditions: mouse, primary Müller cells from mouse retina, 24 hr under hypoxia, n = 4, mean ± SEM
Method: as §2, §3, §4
as §1, with “B) Topical toxicity of TRAP1 inhibitors.” left out
as §5

COC1=C(OC)C(=O)C(CCCCCCCCCC[P+](c2ccccc2)(c2ccccc2)c2ccccc2)=C(C)C1=O [MitoQ, mitoquinone]
histologic abnormality of cornea after topical application [1]: did not cause any noticeable abnormality | IC50 [2]: 22.5 ± 0.46 µM | IC50 at 24 h [3]: 22 µM
